The values below come from US20070010671A1, “Novel quinazoline derivatives and methods of treatment related to the use thereof” (priority 2003, published 2007).

The assay concerns the target MCH receptor (Homo sapiens, UniProt Q99705). Put plainly: High throughput functional screening FLIPR/FDSS6000: inhibition of MCH-evoked intracellular Ca2+ changes. It is filed as cell-based. Particulars: class by percent of control at 10^-7 M or IC50. An outline of the steps: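 Seed cells the day before, then load them with Fluo4-AM for one hour at 37° C and wash in HEPES-buffered HBSS, pH 7.4. Add compound for 3 min, then stimulate with 50 nM MCH. Monitor the calcium transient for 290 s.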

As for `CN(C)c1nc(N[C@H]2CC[C@@H](NC(=S)Nc3ccc(F)cc3Br)CC2)nc2ccccc12` [compound 383], the class is listed as 2 (Class 2: The value of percent of control at 10^−7 M was from 40% to 60% or the value of IC50 was from 50 nM to 200 nM.).
With `CN(C)c1nc(N[C@H]2CC[C@@H](NC(=S)Nc3ccc(F)c(Cl)c3)CC2)nc2ccccc12` [compound 384] the figure was 3 (Class 3: The value of percent of control at 10^−7 M was more than 60% or the value of IC50 was more than 200 nM.); with `CCCCc1ccc(NC(=S)N[C@H]2CC[C@@H](Nc3nc(N(C)C)c4ccccc4n3)CC2)c(C)c1` [compound 385], 1 (Class 1: The value of percent of control at 10^−7 M was less than 40% or the value of IC50 was less than 50 nM.); with `CN(C)c1ccc(NC(=S)N[C@H]2CC[C@@H](Nc3nc(N(C)C)c4ccccc4n3)CC2)cc1` [compound 386], 3 (Class 3: The value of percent of control at 10^−7 M was more than 60% or the value of IC50 was more than 200 nM.).
`CCN(CC)CCCNC(=S)N[C@H]1CC[C@@H](Nc2nc(N(C)C)c3ccccc3n2)CC1` [compound 387]: the class was 3 (Class 3: The value of percent of control at 10^−7 M was more than 60% or the value of IC50 was more than 200 nM.).
For `CN(C)c1nc(N[C@H]2CC[C@@H](NC(=S)NCCN3CCOCC3)CC2)nc2ccccc12` [compound 388] the value was 3 (Class 3: The value of percent of control at 10^−7 M was more than 60% or the value of IC50 was more than 200 nM.).
With `CN(C)c1nc(N[C@H]2CC[C@@H](NC(=S)Nc3ccc(N(C)C)c4ccccc34)CC2)nc2ccccc12` [compound 389, N-[4-(dimethylamino)-1-naphthyl]-N′-(cis-4-{[4-(dimethylamino)quinazolin-2-yl]amino}cyclohexyl)thiourea] the figure was 1 (Class 1: The value of percent of control at 10^−7 M was less than 40% or the value of IC50 was less than 50 nM.); with `CN(C)c1nc(N[C@H]2CC[C@@H](NC(=S)Nc3cccnc3)CC2)nc2ccccc12` [compound 390], 3 (Class 3: The value of percent of control at 10^−7 M was more than 60% or the value of IC50 was more than 200 nM.); with `CN(C)c1ccc(/N=N/c2ccc(NC(=S)N[C@H]3CC[C@@H](Nc4nc(N(C)C)c5ccccc5n4)CC3)cc2)cc1` [compound 391], 3 (Class 3: The value of percent of control at 10^−7 M was more than 60% or the value of IC50 was more than 200 nM.).
With `CN(C)c1nc(N[C@H]2CC[C@@H](NC(=S)NCCCN3CCOCC3)CC2)nc2ccccc12` [compound 392] the figure was 3 (Class 3: The value of percent of control at 10^−7 M was more than 60% or the value of IC50 was more than 200 nM.); with `CCN(CC)c1ccc(NC(=S)N[C@H]2CC[C@@H](Nc3nc(N(C)C)c4ccccc4n3)CC2)cc1` [compound 393], 3 (Class 3: The value of percent of control at 10^−7 M was more than 60% or the value of IC50 was more than 200 nM.).
For the molecule `CN(C)c1nc(N[C@H]2CC[C@@H](NC(=S)Nc3ccc(/N=N/c4ccccc4)cc3)CC2)nc2ccccc12` [compound 394], the class is 3 (Class 3: The value of percent of control at 10^−7 M was more than 60% or the value of IC50 was more than 200 nM.).
Turning to `CN(C)c1nc(N[C@H]2CC[C@@H](NC(=S)NCCN3CCCCC3)CC2)nc2ccccc12` [compound 395], the class is given as 3 (Class 3: The value of percent of control at 10^−7 M was more than 60% or the value of IC50 was more than 200 nM.).
With `CN(C)c1nc(N[C@H]2CC[C@@H](NC(=S)NCc3cccnc3)CC2)nc2ccccc12` [compound 396] the figure was 3 (Class 3: The value of percent of control at 10^−7 M was more than 60% or the value of IC50 was more than 200 nM.); with `CN(C)c1nc(N[C@H]2CC[C@@H](NC(=S)Nc3ccc(-n4cccn4)cc3)CC2)nc2ccccc12` [compound 397], 3 (Class 3: The value of percent of control at 10^−7 M was more than 60% or the value of IC50 was more than 200 nM.); with `CN(C)c1nc(N[C@H]2CC[C@@H](NC(=S)Nc3cccc4nsnc34)CC2)nc2ccccc12` [compound 398], 3 (Class 3: The value of percent of control at 10^−7 M was more than 60% or the value of IC50 was more than 200 nM.).
For `CN(C)c1nc(N[C@H]2CC[C@@H](NC(=S)Nc3ccc4nsnc4c3)CC2)nc2ccccc12` [compound 399] the value was 3 (Class 3: The value of percent of control at 10^−7 M was more than 60% or the value of IC50 was more than 200 nM.).
As to `Cc1noc(C)c1NC(=S)N[C@H]1CC[C@@H](Nc2nc(N(C)C)c3ccccc3n2)CC1` [compound 400], the class is recorded as 3 (Class 3: The value of percent of control at 10^−7 M was more than 60% or the value of IC50 was more than 200 nM.).
On to `CN(C)c1nc(N[C@H]2CC[C@@H](NC(=S)Nc3ccc(-c4cnco4)cc3)CC2)nc2ccccc12` [compound 401], for which the class is 3 (Class 3: The value of percent of control at 10^−7 M was more than 60% or the value of IC50 was more than 200 nM.).
With `Cc1onc(-c2ccccc2)c1NC(=S)N[C@H]1CC[C@@H](Nc2nc(N(C)C)c3ccccc3n2)CC1` [compound 402, N-(cis-4-{[4-(dimethylamino)quinazolin-2-yl]amino}cyclohexyl)-N′-(5-methyl-3-phenylisoxazol-4-yl)thiourea] the figure was 1 (Class 1: The value of percent of control at 10^−7 M was less than 40% or the value of IC50 was less than 50 nM.).
On to `CN(C)c1nc(N[C@H]2CC[C@@H](NC(=S)Nc3ccc(N4CCOCC4)nc3)CC2)nc2ccccc12` [compound 403], for which the class was 3 (Class 3: The value of percent of control at 10^−7 M was more than 60% or the value of IC50 was more than 200 nM.).
For `CN(C)c1nc(N[C@H]2CC[C@@H](NC(=S)Nc3ccc(Oc4ccccc4)nc3)CC2)nc2ccccc12` [compound 404] the value was 3 (Class 3: The value of percent of control at 10^−7 M was more than 60% or the value of IC50 was more than 200 nM.).
For `CC(=O)c1cccc(NC(=O)NC[C@H]2CC[C@@H](Nc3nc(N(C)C)c4ccccc4n3)CC2)c1` [compound 405] the value was 3 (Class 3: The value of percent of control at 10^−7 M was more than 60% or the value of IC50 was more than 200 nM.); for `CC(=O)c1ccc(NC(=O)NC[C@H]2CC[C@@H](Nc3nc(N(C)C)c4ccccc4n3)CC2)cc1` [compound 407], 3 (Class 3: The value of percent of control at 10^−7 M was more than 60% or the value of IC50 was more than 200 nM.); for `CN(C)c1nc(N[C@H]2CC[C@@H](CNC(=O)NC(=O)c3ccccc3)CC2)nc2ccccc12` [compound 408], 3 (Class 3: The value of percent of control at 10^−7 M was more than 60% or the value of IC50 was more than 200 nM.).
With `CN(C)c1nc(N[C@H]2CC[C@@H](CNC(=O)Nc3cc(C(F)(F)F)cc(C(F)(F)F)c3)CC2)nc2ccccc12` [compound 409] the figure was 3 (Class 3: The value of percent of control at 10^−7 M was more than 60% or the value of IC50 was more than 200 nM.).
For `CN(C)c1nc(N[C@H]2CC[C@@H](CNC(=O)NCc3ccccc3)CC2)nc2ccccc12` [compound 410], the class is on record as 3 (Class 3: The value of percent of control at 10^−7 M was more than 60% or the value of IC50 was more than 200 nM.).
For the molecule `CN(C)c1nc(N[C@H]2CC[C@@H](CNC(=O)Nc3ccccc3Br)CC2)nc2ccccc12` [compound 411, N-(2-bromophenyl)-N′-[(cis-4-{[4-(dimethylamino)quinazolin-2-yl]amino}cyclohexyl)methyl]urea], the class was 2 (Class 2: The value of percent of control at 10^−7 M was from 40% to 60% or the value of IC50 was from 50 nM to 200 nM.).
For the molecule `CN(C)c1nc(N[C@H]2CC[C@@H](CNC(=O)Nc3ccccc3-c3ccccc3)CC2)nc2ccccc12` [compound 412, N-biphenyl-2-yl-N′-[(cis-4-{[4-(dimethylamino)quinazolin-2-yl]amino}cyclohexyl)methyl]urea], the class is on record as 2 (Class 2: The value of percent of control at 10^−7 M was from 40% to 60% or the value of IC50 was from 50 nM to 200 nM.).
With `CN(C)c1nc(N[C@H]2CC[C@@H](CNC(=O)Nc3ccc(Br)cc3)CC2)nc2ccccc12` [compound 413] the figure was 3 (Class 3: The value of percent of control at 10^−7 M was more than 60% or the value of IC50 was more than 200 nM.); with `CCCCNC(=O)NC[C@H]1CC[C@@H](Nc2nc(N(C)C)c3ccccc3n2)CC1` [compound 414, N-butyl-N′-[(cis-4-{[4-(dimethylamino)quinazolin-2-yl]amino}cyclohexyl)methyl]urea], 2 (Class 2: The value of percent of control at 10^−7 M was from 40% to 60% or the value of IC50 was from 50 nM to 200 nM.).
For `CN(C)c1nc(N[C@H]2CC[C@@H](CNC(=O)Nc3cccc(Cl)c3)CC2)nc2ccccc12` [compound 415, N-(3-chlorophenyl)-N′-[(cis-4-{[4-(dimethylamino)quinazolin-2-yl]amino}cyclohexyl)methyl]urea] the value was 2 (Class 2: The value of percent of control at 10^−7 M was from 40% to 60% or the value of IC50 was from 50 nM to 200 nM.); for `CN(C)c1nc(N[C@H]2CC[C@@H](CNC(=O)Nc3ccc(Cl)cc3)CC2)nc2ccccc12` [compound 416], 3 (Class 3: The value of percent of control at 10^−7 M was more than 60% or the value of IC50 was more than 200 nM.); for `CN(C)c1nc(N[C@H]2CC[C@@H](CNC(=O)NC3CCCCC3)CC2)nc2ccccc12` [compound 417, N-cyclohexyl-N′-[(cis-4-{[4-(dimethylamino)quinazolin-2-yl]amino}cyclohexyl)methyl]urea], 2 (Class 2: The value of percent of control at 10^−7 M was from 40% to 60% or the value of IC50 was from 50 nM to 200 nM.).
With `CN(C)c1nc(N[C@H]2CC[C@@H](CNC(=O)Nc3cccc(C#N)c3)CC2)nc2ccccc12` [compound 418, N-(3-cyanophenyl)-N′-[(cis-4-{[4-(dimethylamino)quinazolin-2-yl]amino}cyclohexyl)methyl]urea] the figure was 2 (Class 2: The value of percent of control at 10^−7 M was from 40% to 60% or the value of IC50 was from 50 nM to 200 nM.).
